Experimental data: PubChem BioAssay (NCI)
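Method: 48-hour compound exposure of cells in 96-well plates, five concentrations, linear interpolation of endpoints. The concentration for 50% growth inhibition is given as GI50. TGI is the concentration that stops growth completely.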

Experiments:
Experiment in all cases: DTP human tumour cell line panel, 48 h; in the data active = GI50 below about 0.43 µM; inactive = the rest
NCI-H226 lung = test system: NCI-H226 lung
NCI-H522 lung = test system: NCI-H522 lung
HOP-62 NSCLC = test system: HOP-62 NSCLC
HT29 colon = test system: HT29 colon
SK-OV-3 ovarian = test system: SK-OV-3 ovarian
HL-60(TB) leukemia = test system: HL-60(TB) leukemia
SF-268 CNS = test system: SF-268 CNS
HCT-15 colon = test system: HCT-15 colon
SN12C renal = test system: SN12C renal
RPMI-8226 leukemia = test system: RPMI-8226 leukemia
OVCAR-5 ovarian = test system: OVCAR-5 ovarian
KM12 colon = test system: KM12 colon
MDA-MB-231 breast = test system: MDA-MB-231 breast
A498 renal = test system: A498 renal
EKVX NSCLC = test system: EKVX NSCLC
HOP-92 NSCLC = test system: HOP-92 NSCLC
SK-MEL-28 melanoma = test system: SK-MEL-28 melanoma
MDA-MB-435 = test system: MDA-MB-435
LOX IMVI melanoma = test system: LOX IMVI melanoma
IGROV1 ovarian = test system: IGROV1 ovarian
MOLT-4 leukemia = test system: MOLT-4 leukemia
MDA-N = test system: MDA-N
M14 melanoma = test system: M14 melanoma
OVCAR-3 ovarian = test system: OVCAR-3 ovarian
CAKI-1 renal = test system: CAKI-1 renal
BT-549 breast = test system: BT-549 breast
SNB-19 CNS = test system: SNB-19 CNS
TK-10 renal = test system: TK-10 renal
SK-MEL-5 melanoma = test system: SK-MEL-5 melanoma
OVCAR-4 ovarian = test system: OVCAR-4 ovarian
COLO 205 colon = test system: COLO 205 colon
T-47D breast = test system: T-47D breast
SNB-75 CNS = test system: SNB-75 CNS
786-0 renal = test system: 786-0 renal
UACC-257 melanoma = test system: UACC-257 melanoma
MCF7 breast = test system: MCF7 breast
A549 NSCLC = test system: A549 NSCLC
CCRF-CEM leukemia = test system: CCRF-CEM leukemia
SW-620 colon = test system: SW-620 colon
K-562 leukemia = test system: K-562 leukemia
UACC-62 melanoma = test system: UACC-62 melanoma
RXF 393 renal = test system: RXF 393 renal
NCI/ADR-RES ovarian = test system: NCI/ADR-RES ovarian
MALME-3M melanoma = test system: MALME-3M melanoma
SF-295 CNS = test system: SF-295 CNS
SK-MEL-2 melanoma = test system: SK-MEL-2 melanoma
PC-3 prostate = test system: PC-3 prostate
NCI-H23 lung = test system: NCI-H23 lung
DU-145 prostate = test system: DU-145 prostate
U251 CNS = test system: U251 CNS
OVCAR-8 ovarian = test system: OVCAR-8 ovarian
HCT-116 colon = test system: HCT-116 colon
HS 578T breast = test system: HS 578T breast
SF-539 CNS = test system: SF-539 CNS
SR leukemia = test system: SR leukemia
HCC-2998 colon = test system: HCC-2998 colon
ACHN renal = test system: ACHN renal
NCI-H460 lung = test system: NCI-H460 lung
UO-31 renal = test system: UO-31 renal

Cc1ccc2c(=O)cc(-c3sc4ccccc4c3C)[nH]c2n1
44.7 µM: TGI (BT-549 breast)
73.8 µM: TGI (HCT-15 colon)
65.8 µM: TGI (COLO 205 colon) | TGI (SW-620 colon)
36.4 µM: TGI (KM12 colon)
50.8 µM: TGI (SNB-75 CNS)
81.3 µM: TGI (NCI-H226 lung)
50.1 µM: TGI (OVCAR-3 ovarian)
51.7 µM: TGI (HS 578T breast)
> 100 µM: TGI (SN12C renal) | TGI (OVCAR-5 ovarian) | TGI (MDA-MB-231 breast) | TGI (A498 renal) | TGI (SNB-19 CNS) | TGI (TK-10 renal) | TGI (UACC-257 melanoma) | TGI (MCF7 breast) | TGI (K-562 leukemia) | TGI (SK-MEL-2 melanoma) | TGI (PC-3 prostate) | TGI (U251 CNS)
53.1 µM: TGI (RXF 393 renal)
78.1 µM: TGI (HT29 colon)
46.7 µM: TGI (LOX IMVI melanoma)
53.3 µM: TGI (CAKI-1 renal)
52.1 µM: TGI (SF-295 CNS)
42.9 µM: TGI (HL-60(TB) leukemia)
88.2 µM: TGI (EKVX NSCLC)
36.3 µM: TGI (UACC-62 melanoma)
55.8 µM: TGI (T-47D breast)
75.4 µM: TGI (HOP-62 NSCLC)
47.6 µM: TGI (NCI/ADR-RES ovarian)
30.6 µM: TGI (HOP-92 NSCLC)
55.6 µM: TGI (HCT-116 colon)
48.1 µM: TGI (NCI-H23 lung)
41.6 µM: TGI (MALME-3M melanoma)
85.6 µM: TGI (A549 NSCLC)
inactive: GI50 (HL-60(TB) leukemia) 18.5 µM | GI50 (MDA-MB-435) 4.84 µM | GI50 (OVCAR-3 ovarian) 19.7 µM | GI50 (SK-MEL-5 melanoma) 14.9 µM | GI50 (SW-620 colon) 19.8 µM | GI50 (RXF 393 renal) 16.8 µM | GI50 (PC-3 prostate) 33.4 µM | GI50 (NCI-H23 lung) 19.7 µM | GI50 (U251 CNS) 38.7 µM
69.7 µM: TGI (SF-268 CNS) | TGI (MOLT-4 leukemia)
51 µM: TGI (M14 melanoma)
71.4 µM: TGI (SK-OV-3 ovarian) | TGI (SK-MEL-28 melanoma)
38.1 µM: TGI (RPMI-8226 leukemia)
42.3 µM: TGI (NCI-H522 lung)
56.3 µM: TGI (OVCAR-8 ovarian)
45 µM: TGI (MDA-N)
58.4 µM: TGI (CCRF-CEM leukemia)
65.9 µM: TGI (DU-145 prostate)
17.8 µM: TGI (MDA-MB-435)
28.2 µM: TGI (SK-MEL-5 melanoma)
45.7 µM: TGI (IGROV1 ovarian)
54 µM: TGI (OVCAR-4 ovarian)
46.8 µM: TGI (786-0 renal)

CC(C)(C)C1CCC2c3c([nH]c4ccccc34)C3C(=O)N(c4ccc5c(c4)C(=O)c4ccccc4C5=O)C(=O)C3C2C1 (configuration not stated)
> 100 µM: TGI (SF-539 CNS) | TGI (NCI-H226 lung) | TGI (NCI-H522 lung) | TGI (HOP-62 NSCLC) | TGI (HT29 colon) | TGI (SK-OV-3 ovarian) | TGI (SR leukemia) | TGI (HL-60(TB) leukemia) | TGI (SF-268 CNS) | TGI (HCT-15 colon) | TGI (SN12C renal) | TGI (RPMI-8226 leukemia) | TGI (OVCAR-5 ovarian) | TGI (KM12 colon) | TGI (MDA-MB-231 breast) | TGI (A498 renal) | TGI (EKVX NSCLC) | TGI (SK-MEL-28 melanoma) | TGI (HCC-2998 colon) | TGI (MDA-MB-435) | TGI (LOX IMVI melanoma) | TGI (IGROV1 ovarian) | TGI (MOLT-4 leukemia) | TGI (MDA-N) | TGI (M14 melanoma) | TGI (OVCAR-3 ovarian) | TGI (CAKI-1 renal) | TGI (BT-549 breast) | TGI (SNB-19 CNS) | TGI (TK-10 renal) | TGI (SK-MEL-5 melanoma) | TGI (OVCAR-4 ovarian) | TGI (COLO 205 colon) | TGI (T-47D breast) | TGI (786-0 renal) | TGI (UACC-257 melanoma) | TGI (MCF7 breast) | TGI (A549 NSCLC) | TGI (CCRF-CEM leukemia) | TGI (ACHN renal) | TGI (SW-620 colon) | TGI (K-562 leukemia) | TGI (NCI-H460 lung) | TGI (UACC-62 melanoma) | TGI (RXF 393 renal) | TGI (NCI/ADR-RES ovarian) | TGI (MALME-3M melanoma) | TGI (SF-295 CNS) | TGI (SK-MEL-2 melanoma) | TGI (PC-3 prostate) | TGI (NCI-H23 lung) | TGI (DU-145 prostate) | TGI (U251 CNS) | TGI (OVCAR-8 ovarian) | TGI (HCT-116 colon) | TGI (HS 578T breast)

COc1cc2c(c(OC3OC(CO)C(O)C(O)C3O)c1)C(=O)CC(c1ccc(O)cc1)O2 (configuration not stated)
> 100 µM: TGI (SF-539 CNS) | TGI (NCI-H226 lung) | TGI (NCI-H522 lung) | TGI (HT29 colon) | TGI (SK-OV-3 ovarian) | TGI (SR leukemia) | TGI (HL-60(TB) leukemia) | TGI (SF-268 CNS) | TGI (HCT-15 colon) | TGI (SN12C renal) | TGI (RPMI-8226 leukemia) | TGI (OVCAR-5 ovarian) | TGI (KM12 colon) | TGI (UO-31 renal) | TGI (MDA-MB-231 breast) | TGI (A498 renal) | TGI (EKVX NSCLC) | TGI (HOP-92 NSCLC) | TGI (SK-MEL-28 melanoma) | TGI (HCC-2998 colon) | TGI (MDA-MB-435) | TGI (LOX IMVI melanoma) | TGI (IGROV1 ovarian) | TGI (MOLT-4 leukemia) | TGI (MDA-N) | TGI (M14 melanoma) | TGI (OVCAR-3 ovarian) | TGI (CAKI-1 renal) | TGI (BT-549 breast) | TGI (SNB-19 CNS) | TGI (TK-10 renal) | TGI (SK-MEL-5 melanoma) | TGI (OVCAR-4 ovarian) | TGI (COLO 205 colon) | TGI (T-47D breast) | TGI (SNB-75 CNS) | TGI (786-0 renal) | TGI (UACC-257 melanoma) | TGI (MCF7 breast) | TGI (A549 NSCLC) | TGI (ACHN renal) | TGI (SW-620 colon) | TGI (K-562 leukemia) | TGI (NCI-H460 lung) | TGI (UACC-62 melanoma) | TGI (NCI/ADR-RES ovarian) | TGI (SF-295 CNS) | TGI (SK-MEL-2 melanoma) | TGI (PC-3 prostate) | TGI (NCI-H23 lung) | TGI (DU-145 prostate) | TGI (U251 CNS) | TGI (OVCAR-8 ovarian) | TGI (HCT-116 colon) | TGI (HS 578T breast)

Cc1cc2c(cc1N)C(C)C1(CCC(=O)N2Cc2ccccc2)OCCO1 (configuration not stated)
> 100 µM: TGI (SF-539 CNS) | TGI (NCI-H226 lung) | TGI (NCI-H522 lung) | TGI (HOP-62 NSCLC) | TGI (HT29 colon) | TGI (SK-OV-3 ovarian) | TGI (SR leukemia) | TGI (SF-268 CNS) | TGI (HCT-15 colon) | TGI (SN12C renal) | TGI (RPMI-8226 leukemia) | TGI (OVCAR-5 ovarian) | TGI (KM12 colon) | TGI (UO-31 renal) | TGI (MDA-MB-231 breast) | TGI (A498 renal) | TGI (EKVX NSCLC) | TGI (HOP-92 NSCLC) | TGI (SK-MEL-28 melanoma) | TGI (HCC-2998 colon) | TGI (MDA-MB-435) | TGI (LOX IMVI melanoma) | TGI (IGROV1 ovarian) | TGI (MOLT-4 leukemia) | TGI (MDA-N) | TGI (M14 melanoma) | TGI (OVCAR-3 ovarian) | TGI (CAKI-1 renal) | TGI (BT-549 breast) | TGI (SNB-19 CNS) | TGI (TK-10 renal) | TGI (SK-MEL-5 melanoma) | TGI (OVCAR-4 ovarian) | TGI (T-47D breast) | TGI (SNB-75 CNS) | TGI (786-0 renal) | TGI (UACC-257 melanoma) | TGI (MCF7 breast) | TGI (A549 NSCLC) | TGI (ACHN renal) | TGI (SW-620 colon) | TGI (NCI-H460 lung) | TGI (UACC-62 melanoma) | TGI (NCI/ADR-RES ovarian) | TGI (MALME-3M melanoma) | TGI (SF-295 CNS) | TGI (SK-MEL-2 melanoma) | TGI (PC-3 prostate) | TGI (NCI-H23 lung) | TGI (DU-145 prostate) | TGI (U251 CNS) | TGI (OVCAR-8 ovarian) | TGI (HCT-116 colon) | TGI (HS 578T breast)
